Measurements taken from publication PMC4190408, “Acylation of Glucagon-Like Peptide-2: Interaction with Lipid Membranes and In Vitro Intestinal Permeability” (PLoS ONE, 2014).
Side chains are listed from the residue outwards. Peptide text beside a SMILES is read from it. * marks the point of attachment. Palmitoyl = CCCCCCCCCCCCCCCC(=O)*; Lauroyl = CCCCCCCCCCCC(=O)*; Octanoyl = CCCCCCCC(=O)*; βAla = NCCC(=O)O

System: Caco-2 cells
Assay: Translocation across Caco-2 cell monolayers
Format: in vitro ADME, human
Conditions: for Caco-2 translocation relative to native GLP-2 (in words): Caco-2 monolayers
Description: Caco-2 cells (passage 40–65) were cultured routinely in DMEM with 10% (v/v) FBS, 1% (v/v) nonessential amino acids, 100 U penicillin, 0.1 mg/mL streptomycin and 2 mM L-glutamine. The Caco-2 cells were seeded at a density of [drawing 60] cells/well on 12 well Transwells plates and grown for 14–16 days in DMEM with media change every second day. The cell layer was confirmed to consist of a single monolayer of cells by fixing and staining the cell layer, and visualizing by fluorescence microscopy.
Before transport experiments, DMEM medium was changed to HBSS buffer (containing 10 mM HEPES and 0.1% (w/v) OVA; 0.4 mL apical side and 1 mL basolateral) and left to equilibrate for 60 minutes. Buffer was replaced apically by 0.4 mL test solution at time zero, and the plates were incubated at [drawing 61] and 5% [drawing 62] with gentle shaking. Test solutions contained 100 [drawing 63] peptide and 0.8 [drawing 64] [ [drawing 65] ]mannitol (a permeability marker). Basolateral samples of 200 [drawing 66] were taken every 15 minutes for 1 hour, and replaced by buffer. The apical test solution and basolateral samples were diluted and analyzed for peptide content with the luciferase assay and for [ [drawing 67] ]mannitol content in a scintillation counter (Packard TopCount), after mixing 1∶1 with scintillation fluid.
The integrity of cell monolayers before, during, and after experiments was verified by measuring the translocation of radioactively labelled mannitol and the transepithelial electrical resistance (TEER), using a Milicell ERS-2 epithelial volt-ohm meter (Millipore, USA). Mannitol translocation and TEER values were not affected by addition of peptide or analogues compared to buffer.
The Caco-2 translocation of peptide or mannitol over Caco-2 layers is expressed as the apparent permeability ( [drawing 72] ), given by: [drawing 73] (6) where [drawing 74] is the steady-state flux of peptide (pmol/s), [drawing 75] is the surface area of the cell monolayer (1.12 [drawing 76] ), and [drawing 77] is the initial sample concentration added to the cell layer.

[1] = apical to basolateral, 1 hour, no enhancer, 3 separate experiments each with 4 repeats

Row | Caco-2 translocation with absorption enhancer, times the native peptide (Caco-2, apical to basolateral, in the presence of EGTA (paracellular) or SDS (transcellular), 2 separate experiments each with 4 repeats) | increase in Caco-2 translocation compared to native GLP-2 (factor) (Caco-2 monolayers 14-16 days, apical to basolateral, 100 (unit is a drawing) peptide, HBSS with 10 mM HEPES and 0.1% OVA, 1 hour, luciferase assay read-out, no enhancer, 3 separate experiments each with 4 repeats) | Caco-2 translocation in the presence of SDS (in words) (Caco-2, apical to basolateral, SDS) | increase in peptide permeability with SDS compared to peptide alone (Caco-2, apical to basolateral, SDS (transcellular enhancer), 2 separate experiments each with 4 repeats) | Compound | Caco-2 translocation relative to native GLP-2 (in words) [1]
1 | approximately 1.5 | ~1.5 | – | – | CCCCCCCCCCCC(=O)NCCC(=O)NCCCC[C@H](NC(=O)[C@H](CC(N)=O)NC(=O)[C@H](CC(=O)O)NC(=O)[C@H](CC(C)C)NC(=O)[C@@H](NC(=O)[C@@H](NC(=O)[C@H](CC(N)=O)NC(=O)[C@H](CCSC)NC(=O)[C@H](CCC(=O)O)NC(=O)[C@H](CC(=O)O)NC(=O)[C@H](CO)NC(=O)[C@H](Cc1ccccc1)NC(=O)[C@H](CO)NC(=O)CNC(=O)[C@H](CCC(=O)O)NC(=O)[C@H](C)NC(=O)[C@@H](N)Cc1c[nH]cn1)[C@@H](C)O)[C@@H](C)CC)C(=O)N[C@@H](C)C(=O)N[C@@H](C)C(=O)N[C@@H](CCCNC(=N)N)C(=O)N[C@@H](CC(=O)O)C(=O)N[C@@H](Cc1ccccc1)C(=O)N[C@H](C(=O)N[C@@H](CC(N)=O)C(=O)N[C@@H](Cc1c[nH]c2ccccc12)C(=O)N[C@@H](CC(C)C)C(=O)N[C@H](C(=O)N[C@@H](CCC(N)=O)C(=O)N[C@H](C(=O)N[C@@H](CCCNC(=N)N)C(=O)N[C@H](C(=O)N[C@H](C(=O)N[C@@H](CC(=O)O)C(=O)O)[C@@H](C)O)[C@@H](C)CC)[C@@H](C)O)[C@@H](C)CC)[C@@H](C)CC [c12] (H-HAEGSFSDEMNTILDNK([βAla-Lauroyl])AARDFINWLIQTRITD-OH) | increase the translocation relative to native GLP-2
2 | – | – | remains lower than for the c12 peptide | the increase is greater | CCCCCCCCCCCCCCCC(=O)NCCC(=O)NCCCC[C@H](NC(=O)[C@H](CC(N)=O)NC(=O)[C@H](CC(=O)O)NC(=O)[C@H](CC(C)C)NC(=O)[C@@H](NC(=O)[C@@H](NC(=O)[C@H](CC(N)=O)NC(=O)[C@H](CCSC)NC(=O)[C@H](CCC(=O)O)NC(=O)[C@H](CC(=O)O)NC(=O)[C@H](CO)NC(=O)[C@H](Cc1ccccc1)NC(=O)[C@H](CO)NC(=O)CNC(=O)[C@H](CCC(=O)O)NC(=O)[C@H](C)NC(=O)[C@@H](N)Cc1c[nH]cn1)[C@@H](C)O)[C@@H](C)CC)C(=O)N[C@@H](C)C(=O)N[C@@H](C)C(=O)N[C@@H](CCCNC(=N)N)C(=O)N[C@@H](CC(=O)O)C(=O)N[C@@H](Cc1ccccc1)C(=O)N[C@H](C(=O)N[C@@H](CC(N)=O)C(=O)N[C@@H](Cc1c[nH]c2ccccc12)C(=O)N[C@@H](CC(C)C)C(=O)N[C@H](C(=O)N[C@@H](CCC(N)=O)C(=O)N[C@H](C(=O)N[C@@H](CCCNC(=N)N)C(=O)N[C@H](C(=O)N[C@H](C(=O)N[C@@H](CC(=O)O)C(=O)O)[C@@H](C)O)[C@@H](C)CC)[C@@H](C)O)[C@@H](C)CC)[C@@H](C)CC [c16] (H-HAEGSFSDEMNTILDNK([βAla-Palmitoyl])AARDFINWLIQTRITD-OH) | decreases it slightly
3 | – | – | – | – | CCCCCCCC(=O)NCCC(=O)NCCCC[C@H](NC(=O)[C@H](CC(N)=O)NC(=O)[C@H](CC(=O)O)NC(=O)[C@H](CC(C)C)NC(=O)[C@@H](NC(=O)[C@@H](NC(=O)[C@H](CC(N)=O)NC(=O)[C@H](CCSC)NC(=O)[C@H](CCC(=O)O)NC(=O)[C@H](CC(=O)O)NC(=O)[C@H](CO)NC(=O)[C@H](Cc1ccccc1)NC(=O)[C@H](CO)NC(=O)CNC(=O)[C@H](CCC(=O)O)NC(=O)[C@H](C)NC(=O)[C@@H](N)Cc1c[nH]cn1)[C@@H](C)O)[C@@H](C)CC)C(=O)N[C@@H](C)C(=O)N[C@@H](C)C(=O)N[C@@H](CCCNC(=N)N)C(=O)N[C@@H](CC(=O)O)C(=O)N[C@@H](Cc1ccccc1)C(=O)N[C@H](C(=O)N[C@@H](CC(N)=O)C(=O)N[C@@H](Cc1c[nH]c2ccccc12)C(=O)N[C@@H](CC(C)C)C(=O)N[C@H](C(=O)N[C@@H](CCC(N)=O)C(=O)N[C@H](C(=O)N[C@@H](CCCNC(=N)N)C(=O)N[C@H](C(=O)N[C@H](C(=O)N[C@@H](CC(=O)O)C(=O)O)[C@@H](C)O)[C@@H](C)CC)[C@@H](C)O)[C@@H](C)CC)[C@@H](C)CC [c8] (H-HAEGSFSDEMNTILDNK([βAla-Octanoyl])AARDFINWLIQTRITD-OH) | increase the translocation relative to native GLP-2
